Drawing on US11548911B2, “Cleavable linker for peptide synthesis” (ROCHE SEQUENCING SOLUTIONS, INC., priority 2018, dated 2023), this text covers solubility in water for 1 compound.

A short description of this data set: Water solubility of hydrophobic peptide and its linker cleavage fragments. It is filed as physicochemical. The procedure:
In order to enhance solubility of this peptide a variant was prepared in which a cleavable N-terminal poly-lysine tag was synthesized after the peptide sequence and incorporated cleavable linker 1: H-KKKKK—(linker 1) AhaGISFSIRFAIWIRFG-NH2 (10) (SEQ. ID. No: 3). Synthesis and purification of this modified peptide proceeded smoothly according to example 3 (FIG. 2B). Pure peptide 10 was dissolved in a 0.05 M aqueous NaHCO3 solution and shaken for 2 h at r.t. (FIG. 2A). The cleavage reaction released the two peptides 11 and 12: While the poly-lysine tag 11 is water soluble, peptide 12 precipitated under the reaction conditions and could be easily isolated in high purity by centrifugation. • FIG. 2B: LC-MS of H-KKKKK (linker 1)-AhaGISFSIRFAIWIRFG-NH2 (10), MS (ESI): 545.4 [M+5H]^5+, 681.6 [M+4H]^4+, 908.3 [M+3H]^3+, 1362.0 [M+2H]^2+. • FIG. 2C: MS (ESI) of insoluble peptide 12 (MS (ESI): 661.5 [M+3H]^3+, 991.3 [M+2H]^2+, 1322.0 […], 1983.1 [M+H]^+).

Non-standard residues stand in square brackets, D forms with d. Residues, ends and D or L forms follow the SMILES beside them. Aha = [N-]=[N+]=NCC[C@H](N)C(=O)O

Consider `CC[C@H](C)[C@H](NC(=O)CNC(=O)[C@@H](N)CCN=[N+]=[N-])C(=O)N[C@@H](CO)C(=O)N[C@@H](Cc1ccccc1)C(=O)N[C@@H](CO)C(=O)N[C@H](C(=O)N[C@@H](CCCNC(=N)N)C(=O)N[C@@H](Cc1ccccc1)C(=O)N[C@@H](C)C(=O)N[C@H](C(=O)N[C@@H](Cc1c[nH]c2ccccc12)C(=O)N[C@H](C(=O)N[C@@H](CCCNC(=N)N)C(=O)N[C@@H](Cc1ccccc1)C(=O)NCC(N)=O)[C@@H](C)CC)[C@@H](C)CC)[C@@H](C)CC` [H-AhaGISFSIRFAIWIRFG-NH2] (H-[Aha]GISFSIRFAIWIRFG-NH2), for which the solubility in water result was “insoluble in water”.
